Drawing on the supplement of paper PMC10307832, this text covers relative viability for six cell lines.

Common to all, as to experiment: relative viability (nuclei count vs DMSO), 5 days (fraction); higher = more cells survive
Compound in the experiment “IPA-3 + Navitoclax”: C1=CC=C2C(=C1)C=CC(=C2SSC3=C(C=CC4=CC=CC=C43)O)O [IPA-3] + CC1(C)CCC(c2ccc(Cl)cc2)=C(CN2CCN(c3ccc(C(=O)NS(=O)(=O)c4ccc(N[C@H](CCN5CCOCC5)CSc5ccccc5)c(S(=O)(=O)C(F)(F)F)c4)cc3)CC2)C1 [Navitoclax] (partner 0.5 µM)
Put shortly:
(§1)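 Each reported value is a median over duplicate plates. It expresses relative viability: treated-well nuclei count divided by vehicle-well nuclei count. Lung cancer cell lines in 1536-well plates were dosed by pin tool a day after seeding, alone with one drug or with a fixed anchor-drug dose plus five library-drug doses (not always all listed) in √10 steps, and nuclei were counted after 5 days.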

Compound in the experiment “RAF265 + Navitoclax”: Cn1c(Nc2ccc(C(F)(F)F)cc2)nc2cc(Oc3ccnc(-c4ncc(C(F)(F)F)[nH]4)c3)ccc21 [RAF265] + CC1(C)CCC(c2ccc(Cl)cc2)=C(CN2CCN(c3ccc(C(=O)NS(=O)(=O)c4ccc(N[C@H](CCN5CCOCC5)CSc5ccccc5)c(S(=O)(=O)C(F)(F)F)c4)cc3)CC2)C1 [Navitoclax] (partner 0.5 µM)
Put shortly: as §1

Compound in the experiment “RAF265 + Tozasertib”: Cn1c(Nc2ccc(C(F)(F)F)cc2)nc2cc(Oc3ccnc(-c4ncc(C(F)(F)F)[nH]4)c3)ccc21 [RAF265] + Cc1cc(Nc2cc(N3CCN(C)CC3)nc(Sc3ccc(NC(=O)C4CC4)cc3)n2)n[nH]1 [Tozasertib] (partner 0.1 µM)
Put shortly:
as §1

Compound in the experiment “RAF265 + Alpelisib”: Cn1c(Nc2ccc(C(F)(F)F)cc2)nc2cc(Oc3ccnc(-c4ncc(C(F)(F)F)[nH]4)c3)ccc21 [RAF265] + Cc1nc(NC(=O)N2CCC[C@H]2C(N)=O)sc1-c1ccnc(C(C)(C)C(F)(F)F)c1 [Alpelisib] (partner 2 µM)
In short, it runs like this:
as §1

In the case of NCI-H1975, the relative viability in the experiment with IPA-3 + Navitoclax (first compound 0.2 µM) was found to be 1.22; with IPA-3 + Navitoclax (first compound 0.6325 µM), 0.932; with IPA-3 + Navitoclax (first compound 2 µM), 1.06; with IPA-3 + Navitoclax (first compound 6.325 µM) it was 1.17; in the experiment with IPA-3 + Navitoclax (first compound 20 µM) it was 1.17; with RAF265 + Navitoclax (first compound 0.01 µM), 1.17. Besides, the relative viability in the experiment with RAF265 + Navitoclax (first compound 0.03162 µM) stood at 0.812; with RAF265 + Navitoclax (first compound 0.1 µM), 0.912; in the experiment with RAF265 + Navitoclax (first compound 0.3162 µM), 0.528; with RAF265 + Navitoclax (first compound 1 µM), 0.324; with RAF265 + Tozasertib (first compound 0.01 µM), 0.676; in the experiment with RAF265 + Tozasertib (first compound 0.03162 µM) it was 0.621. In addition, the relative viability was 0.7 with RAF265 + Tozasertib (first compound 0.1 µM); 0.379 in the experiment with RAF265 + Tozasertib (first compound 0.3162 µM); 0.126 with RAF265 + Tozasertib (first compound 1 µM); 0.589 in the experiment with RAF265 + Alpelisib (first compound 0.01 µM); 0.427 in the experiment with RAF265 + Alpelisib (first compound 0.03162 µM); 0.306 with RAF265 + Alpelisib (first compound 0.1 µM). Further, the relative viability with RAF265 + Alpelisib (first compound 0.3162 µM) amounted to 0.234; with RAF265 + Alpelisib (first compound 1 µM), 0.173.
As to NCI-H1993, the relative viability is 0.973 with IPA-3 + Navitoclax (first compound 0.2 µM); 0.911 with IPA-3 + Navitoclax (first compound 0.6325 µM); 0.896 with IPA-3 + Navitoclax (first compound 2 µM); 0.894 with IPA-3 + Navitoclax (first compound 6.325 µM); 0.838 with IPA-3 + Navitoclax (first compound 20 µM); 1.1 in the experiment with RAF265 + Navitoclax (first compound 0.01 µM). Besides, the relative viability amounted to 0.947 with RAF265 + Navitoclax (first compound 0.03162 µM); 1.08 with RAF265 + Navitoclax (first compound 0.1 µM); 0.719 with RAF265 + Navitoclax (first compound 0.3162 µM); 0.783 in the experiment with RAF265 + Navitoclax (first compound 1 µM); 0.606 with RAF265 + Tozasertib (first compound 0.01 µM); 0.57 with RAF265 + Tozasertib (first compound 0.03162 µM). Besides, the relative viability in the experiment with RAF265 + Tozasertib (first compound 0.1 µM) stood at 0.571; with RAF265 + Tozasertib (first compound 0.3162 µM), 0.593; with RAF265 + Tozasertib (first compound 1 µM), 0.594; with RAF265 + Alpelisib (first compound 0.01 µM), 0.648; with RAF265 + Alpelisib (first compound 0.03162 µM) it was 0.648; with RAF265 + Alpelisib (first compound 0.1 µM), 0.77. For the same cell line, the relative viability is 0.761 with RAF265 + Alpelisib (first compound 0.3162 µM) and 0.715 with RAF265 + Alpelisib (first compound 1 µM).
Turning to NCI-H2009, the relative viability stood at 1.29 with IPA-3 + Navitoclax (first compound 0.2 µM); 1.17 with IPA-3 + Navitoclax (first compound 0.6325 µM); 1.19 with IPA-3 + Navitoclax (first compound 2 µM); 1.16 with IPA-3 + Navitoclax (first compound 6.325 µM); 1.15 with IPA-3 + Navitoclax (first compound 20 µM); 1.19 with RAF265 + Navitoclax (first compound 0.01 µM). Also, the relative viability with RAF265 + Navitoclax (first compound 0.03162 µM) is 1.15; with RAF265 + Navitoclax (first compound 0.1 µM), 1.16; with RAF265 + Navitoclax (first compound 0.3162 µM), 1.13; with RAF265 + Navitoclax (first compound 1 µM) it was 0.858; with RAF265 + Tozasertib (first compound 0.01 µM), 0.758; with RAF265 + Tozasertib (first compound 0.03162 µM) it was 0.721. Besides, the relative viability was found to be 0.745 in the experiment with RAF265 + Tozasertib (first compound 0.1 µM); 0.809 with RAF265 + Tozasertib (first compound 0.3162 µM); 0.476 with RAF265 + Tozasertib (first compound 1 µM); 1.21 in the experiment with RAF265 + Alpelisib (first compound 0.01 µM); 1.11 with RAF265 + Alpelisib (first compound 0.03162 µM); 1.03 in the experiment with RAF265 + Alpelisib (first compound 0.1 µM). The relative viability with RAF265 + Alpelisib (first compound 0.3162 µM) was 1.05; with RAF265 + Alpelisib (first compound 1 µM) it was 0.594.
In the case of NCI-H2023, the relative viability stood at 1.1 in the experiment with IPA-3 + Navitoclax (first compound 0.2 µM); 0.977 in the experiment with IPA-3 + Navitoclax (first compound 0.6325 µM); 0.984 in the experiment with IPA-3 + Navitoclax (first compound 2 µM); 1.04 with IPA-3 + Navitoclax (first compound 6.325 µM); 0.967 with IPA-3 + Navitoclax (first compound 20 µM); 1.09 with RAF265 + Navitoclax (first compound 0.01 µM). Moreover, the relative viability in the experiment with RAF265 + Navitoclax (first compound 0.03162 µM) is 1.02; with RAF265 + Navitoclax (first compound 0.1 µM), 1.06; with RAF265 + Navitoclax (first compound 0.3162 µM) it was 1.09; with RAF265 + Navitoclax (first compound 1 µM), 0.908; with RAF265 + Tozasertib (first compound 0.01 µM) it was 0.314; in the experiment with RAF265 + Tozasertib (first compound 0.03162 µM), 0.497. Also, the relative viability in the experiment with RAF265 + Tozasertib (first compound 0.1 µM) was determined as 0.466; with RAF265 + Tozasertib (first compound 0.3162 µM) it was 0.286; with RAF265 + Tozasertib (first compound 1 µM), 0.183; in the experiment with RAF265 + Alpelisib (first compound 0.01 µM) it was 0.554; with RAF265 + Alpelisib (first compound 0.03162 µM) it was 0.625; with RAF265 + Alpelisib (first compound 0.1 µM), 0.721. In addition, the relative viability in the experiment with RAF265 + Alpelisib (first compound 0.3162 µM) amounted to 0.639; with RAF265 + Alpelisib (first compound 1 µM), 0.508.
Regarding NCI-H2085, the relative viability with IPA-3 + Navitoclax (first compound 0.2 µM) is 1.15; with IPA-3 + Navitoclax (first compound 0.6325 µM), 0.985; with IPA-3 + Navitoclax (first compound 2 µM), 1.25; with IPA-3 + Navitoclax (first compound 6.325 µM), 1.14; in the experiment with IPA-3 + Navitoclax (first compound 20 µM), 1.18; with RAF265 + Navitoclax (first compound 0.01 µM) it was 1.17. Moreover, the relative viability with RAF265 + Navitoclax (first compound 0.03162 µM) turned out to be 1.12; with RAF265 + Navitoclax (first compound 0.1 µM) it was 1.16; with RAF265 + Navitoclax (first compound 0.3162 µM), 1.27; in the experiment with RAF265 + Navitoclax (first compound 1 µM), 1.09; in the experiment with RAF265 + Tozasertib (first compound 0.01 µM), 0.965; with RAF265 + Tozasertib (first compound 0.03162 µM), 0.706. The relative viability worked out at 0.914 with RAF265 + Tozasertib (first compound 0.1 µM); 0.822 with RAF265 + Tozasertib (first compound 0.3162 µM); 0.558 with RAF265 + Tozasertib (first compound 1 µM); 1 with RAF265 + Alpelisib (first compound 0.01 µM); 0.961 in the experiment with RAF265 + Alpelisib (first compound 0.03162 µM); 0.85 in the experiment with RAF265 + Alpelisib (first compound 0.1 µM). Besides, the relative viability with RAF265 + Alpelisib (first compound 0.3162 µM) was determined as 1.03; with RAF265 + Alpelisib (first compound 1 µM), 0.891.
Take NCI-H2087: the relative viability in the experiment with IPA-3 + Navitoclax (first compound 0.2 µM) came to 1.15; with IPA-3 + Navitoclax (first compound 0.6325 µM) it was 0.863; with IPA-3 + Navitoclax (first compound 2 µM), 0.837; with IPA-3 + Navitoclax (first compound 6.325 µM), 0.859; with IPA-3 + Navitoclax (first compound 20 µM), 0.926; with RAF265 + Navitoclax (first compound 0.01 µM) it was 0.995. For the same cell line, the relative viability stood at 0.823 with RAF265 + Navitoclax (first compound 0.03162 µM); 0.692 with RAF265 + Navitoclax (first compound 0.1 µM); 0.683 with RAF265 + Navitoclax (first compound 0.3162 µM); 0.568 in the experiment with RAF265 + Navitoclax (first compound 1 µM); 0.268 with RAF265 + Tozasertib (first compound 0.01 µM); 0.266 with RAF265 + Tozasertib (first compound 0.03162 µM). For the same cell line, the relative viability in the experiment with RAF265 + Tozasertib (first compound 0.1 µM) worked out at 0.284; with RAF265 + Tozasertib (first compound 0.3162 µM), 0.205; with RAF265 + Tozasertib (first compound 1 µM) it was 0.152; with RAF265 + Alpelisib (first compound 0.01 µM), 0.861; in the experiment with RAF265 + Alpelisib (first compound 0.03162 µM) it was 0.89; with RAF265 + Alpelisib (first compound 0.1 µM), 0.909. Also, the relative viability in the experiment with RAF265 + Alpelisib (first compound 0.3162 µM) came out at 0.709; in the experiment with RAF265 + Alpelisib (first compound 1 µM), 0.677.
